Earlier results on 5 compounds are cited in US20190343122A1, “IMPROVED INSECT CONTROL STRATEGIES UTILIZING PHEROMONES AND RNAI” (Provivi, Inc., priority 2016, published 2019).

One series concerns target genes of pests. To be noted: Noctuidae Spodoptera exigua.
The subject of the next series is aphids. To be noted: in vivo.
For another series, the system named is E. heros. To be noted: female E. heros.

Turning to `O=Cc1ccccc1` [benzaldehyde], the “attractiveness of an oviposition substrate” value in the series on mated H. armigera was “significantly increase the attractiveness”. For PGCP, the Larval mortality result in the series on target genes of pests is reported as “Larval mortality increased”. On to `CCCCCCC=O` [Heptanal], for which the “attractiveness of an oviposition substrate” value in the series with mated H. armigera is “significantly increase the attractiveness”. For the compound `CNC(=O)Oc1cccc2ccccc12` [Sevin, carbaryl], the effectiveness against aphids entry in the series with aphids is “not effective against many aphids”. `CCCC(C)CCCC(C)CCCC(C)C(=O)OC` (centres unmarked) [TMTD, methyl 2,6,10-trimethyltridecanoate]: the attraction to lures result in the series with E. heros is reported as “attracted”.
